Measurements published in patent US20220241278A1 (InCarda Therapeutics, Inc., priority 2021, published 2022).

Key:
[1] = Rat pharmacokinetics: lung tissue and plasma concentration after IV or IT administration; type: in vivo, Sprague Dawley rats; settings: IV data, 60 min sample collection period
Method: Lung tissue and blood were collected for analysis.
Test System: 72 male Sprague Dawley rats (Charles River Laboratories) were used for the study, 8 weeks old, body weight range at study start was 245.8-317 g.
Experimental Design and Execution: In brief, after the animals were transferred to study, all animals were randomly assigned to treatment groups per the study design below. Animals were treated either via intravenous (IV) administration of formulation R1, or via intratracheal (IT) administration for formulation R2 of the test article.
Plasma and lung concentration vs. time data was analyzed using JMP version 15.2.0. Averages for each time point are reported for groups/time points that have a minimum of 2 animals.
The Therapeutic Advantage (Rd) in Table 8 was calculated using the following equation: […]

[2] = Appearance of about 30 mg/mL imatinib free base in 30% SBEβCD, 50 mM phosphate buffer at different pH; settings: about 30 mg/mL in 30% SBβCD

## Cc1ccc(NC(=O)c2ccc(CN3CCN(C)CC3)cc2)cc1Nc1nccc(-c2cccnc2)n1 [imatinib free base, imatinib]
[1]
  distribution between lung tissue and plasma: preferentially accumulates in the lung tissue
[2]; pH 3
  appearance of the mixture: clear solutions
[2]; pH 5
  appearance of the mixture: clear solutions
[2]; pH 7
  appearance of the mixture: white suspension
